From article doi:10.1101/2023.11.24.568596v1 (biorxiv, 2023)

Legend:
Details in all cases: binder
AAK1 = AAK1 (Homo sapiens, UniProt Q2M2I8)
DYRK1A = DYRK1A (Homo sapiens, UniProt Q13627)
MAP3K5 = biological target: T1, MAP3K5 (Homo sapiens, UniProt Q99683)
T1 sequence (Q99683 1-1374): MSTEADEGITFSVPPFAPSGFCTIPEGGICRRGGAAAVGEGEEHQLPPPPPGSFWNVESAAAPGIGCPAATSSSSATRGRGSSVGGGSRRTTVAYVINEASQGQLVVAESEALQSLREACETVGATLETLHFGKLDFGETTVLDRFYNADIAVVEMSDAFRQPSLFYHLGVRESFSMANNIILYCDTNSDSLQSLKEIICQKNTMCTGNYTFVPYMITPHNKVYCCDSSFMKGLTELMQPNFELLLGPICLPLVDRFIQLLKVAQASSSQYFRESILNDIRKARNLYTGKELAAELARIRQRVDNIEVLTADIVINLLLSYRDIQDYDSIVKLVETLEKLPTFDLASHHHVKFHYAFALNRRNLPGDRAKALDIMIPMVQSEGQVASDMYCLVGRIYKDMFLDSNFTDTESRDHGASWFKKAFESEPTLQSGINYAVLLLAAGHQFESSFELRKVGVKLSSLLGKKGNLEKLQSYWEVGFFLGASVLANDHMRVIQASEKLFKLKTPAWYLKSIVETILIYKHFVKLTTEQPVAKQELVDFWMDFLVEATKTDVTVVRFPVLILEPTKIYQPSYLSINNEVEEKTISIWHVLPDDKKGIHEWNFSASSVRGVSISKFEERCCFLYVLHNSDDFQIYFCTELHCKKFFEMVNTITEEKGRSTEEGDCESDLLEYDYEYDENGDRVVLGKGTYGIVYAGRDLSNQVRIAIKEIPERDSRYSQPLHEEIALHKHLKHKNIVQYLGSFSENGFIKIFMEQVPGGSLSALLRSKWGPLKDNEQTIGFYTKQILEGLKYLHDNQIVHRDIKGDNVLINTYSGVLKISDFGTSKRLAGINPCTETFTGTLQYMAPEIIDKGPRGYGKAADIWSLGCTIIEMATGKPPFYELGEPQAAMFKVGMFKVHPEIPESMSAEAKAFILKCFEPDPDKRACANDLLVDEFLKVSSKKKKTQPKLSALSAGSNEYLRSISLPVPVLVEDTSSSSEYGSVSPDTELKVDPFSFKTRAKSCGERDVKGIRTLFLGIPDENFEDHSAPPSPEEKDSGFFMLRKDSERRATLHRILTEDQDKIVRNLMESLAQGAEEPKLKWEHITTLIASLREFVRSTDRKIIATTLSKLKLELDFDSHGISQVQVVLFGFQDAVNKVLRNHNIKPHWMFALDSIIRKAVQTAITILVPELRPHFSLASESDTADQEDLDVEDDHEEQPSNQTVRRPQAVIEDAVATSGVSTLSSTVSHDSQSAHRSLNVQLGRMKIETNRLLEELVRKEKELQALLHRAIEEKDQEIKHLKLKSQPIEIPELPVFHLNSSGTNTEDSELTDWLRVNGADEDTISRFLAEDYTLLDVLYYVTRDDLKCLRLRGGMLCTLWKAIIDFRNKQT

CaMK4 = biological target: T2, CaMK4 (Homo sapiens, UniProt Q16566)
T2 sequence (Q16566 1-473): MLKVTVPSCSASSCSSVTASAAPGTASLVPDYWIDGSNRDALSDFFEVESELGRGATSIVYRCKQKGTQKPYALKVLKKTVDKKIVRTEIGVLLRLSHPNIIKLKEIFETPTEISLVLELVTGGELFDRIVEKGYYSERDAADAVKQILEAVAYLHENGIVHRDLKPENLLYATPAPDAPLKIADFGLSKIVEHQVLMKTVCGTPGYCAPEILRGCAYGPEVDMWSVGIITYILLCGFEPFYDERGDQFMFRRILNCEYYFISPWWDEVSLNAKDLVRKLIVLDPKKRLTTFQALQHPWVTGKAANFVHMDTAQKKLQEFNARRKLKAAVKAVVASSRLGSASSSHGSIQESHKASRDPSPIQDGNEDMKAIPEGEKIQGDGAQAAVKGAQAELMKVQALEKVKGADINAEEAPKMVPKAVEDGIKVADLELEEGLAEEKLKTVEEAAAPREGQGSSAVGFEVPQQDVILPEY

AKT3 = AKT3 (Homo sapiens, UniProt Q9Y243)
Sequence of AKT3 (Q9Y243 whole entry): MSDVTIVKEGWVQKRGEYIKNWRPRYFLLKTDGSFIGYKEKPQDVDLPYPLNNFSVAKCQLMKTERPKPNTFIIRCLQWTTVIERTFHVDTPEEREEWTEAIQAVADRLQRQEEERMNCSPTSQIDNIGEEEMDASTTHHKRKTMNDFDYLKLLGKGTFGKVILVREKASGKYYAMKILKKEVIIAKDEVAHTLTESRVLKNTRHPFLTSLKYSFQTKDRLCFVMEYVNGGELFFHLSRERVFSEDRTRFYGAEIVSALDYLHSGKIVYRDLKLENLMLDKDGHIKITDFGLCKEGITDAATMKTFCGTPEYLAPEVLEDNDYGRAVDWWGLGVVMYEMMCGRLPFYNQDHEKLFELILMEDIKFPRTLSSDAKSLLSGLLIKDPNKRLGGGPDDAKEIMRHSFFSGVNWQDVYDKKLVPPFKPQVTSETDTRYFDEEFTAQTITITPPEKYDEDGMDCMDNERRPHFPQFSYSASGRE

FES = FES (Homo sapiens, UniProt P07332)
Sequence of FES (P07332 whole entry): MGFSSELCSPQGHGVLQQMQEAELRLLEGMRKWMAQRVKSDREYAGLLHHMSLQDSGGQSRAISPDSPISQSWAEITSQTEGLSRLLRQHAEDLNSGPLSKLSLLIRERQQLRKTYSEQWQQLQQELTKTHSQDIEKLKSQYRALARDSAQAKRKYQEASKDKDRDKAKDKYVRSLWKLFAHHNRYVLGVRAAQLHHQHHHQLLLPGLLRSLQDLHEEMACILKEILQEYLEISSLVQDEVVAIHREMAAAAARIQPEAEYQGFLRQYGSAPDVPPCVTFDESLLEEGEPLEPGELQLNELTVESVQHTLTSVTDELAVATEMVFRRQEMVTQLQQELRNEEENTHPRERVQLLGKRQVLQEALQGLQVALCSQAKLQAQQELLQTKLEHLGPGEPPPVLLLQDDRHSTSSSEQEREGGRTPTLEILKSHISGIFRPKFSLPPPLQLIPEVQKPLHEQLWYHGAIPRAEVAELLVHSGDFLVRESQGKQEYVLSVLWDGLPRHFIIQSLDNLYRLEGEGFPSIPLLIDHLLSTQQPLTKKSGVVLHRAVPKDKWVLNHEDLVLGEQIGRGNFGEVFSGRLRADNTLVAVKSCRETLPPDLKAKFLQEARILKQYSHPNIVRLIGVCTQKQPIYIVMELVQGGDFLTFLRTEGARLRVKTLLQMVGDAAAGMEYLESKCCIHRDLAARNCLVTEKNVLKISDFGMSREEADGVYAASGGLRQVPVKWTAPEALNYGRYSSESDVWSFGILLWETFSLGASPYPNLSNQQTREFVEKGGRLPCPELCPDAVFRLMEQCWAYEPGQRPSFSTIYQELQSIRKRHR

Sequence of AAK1 (Q2M2I8 whole entry): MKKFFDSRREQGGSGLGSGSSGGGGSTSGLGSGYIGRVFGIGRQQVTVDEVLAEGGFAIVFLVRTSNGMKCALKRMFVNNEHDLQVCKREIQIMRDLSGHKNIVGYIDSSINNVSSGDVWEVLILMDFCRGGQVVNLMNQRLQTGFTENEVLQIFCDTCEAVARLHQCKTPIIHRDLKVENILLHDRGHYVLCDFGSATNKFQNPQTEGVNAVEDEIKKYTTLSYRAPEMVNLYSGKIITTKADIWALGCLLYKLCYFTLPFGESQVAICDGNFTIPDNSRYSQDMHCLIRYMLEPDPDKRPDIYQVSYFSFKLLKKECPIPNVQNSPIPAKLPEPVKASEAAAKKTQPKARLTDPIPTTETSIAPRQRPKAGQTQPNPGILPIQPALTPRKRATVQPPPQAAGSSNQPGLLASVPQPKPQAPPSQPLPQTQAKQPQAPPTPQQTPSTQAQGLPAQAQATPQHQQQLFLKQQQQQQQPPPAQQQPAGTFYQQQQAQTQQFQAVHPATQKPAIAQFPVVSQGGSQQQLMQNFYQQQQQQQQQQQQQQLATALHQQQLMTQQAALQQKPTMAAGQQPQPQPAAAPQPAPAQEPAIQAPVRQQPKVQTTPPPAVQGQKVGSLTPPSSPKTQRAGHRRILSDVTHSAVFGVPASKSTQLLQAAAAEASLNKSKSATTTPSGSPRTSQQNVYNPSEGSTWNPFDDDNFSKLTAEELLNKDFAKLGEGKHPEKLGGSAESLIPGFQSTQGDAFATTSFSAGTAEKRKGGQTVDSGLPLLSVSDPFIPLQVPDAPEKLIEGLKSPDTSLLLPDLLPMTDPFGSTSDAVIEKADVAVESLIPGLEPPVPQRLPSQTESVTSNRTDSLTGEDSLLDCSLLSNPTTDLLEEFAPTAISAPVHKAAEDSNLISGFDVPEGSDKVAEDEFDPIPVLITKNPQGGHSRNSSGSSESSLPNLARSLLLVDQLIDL

With Cc1cccc(-c2ccc(-c3cc4cnc(NCCCc5ccc(N)cc5)nc4n(CCCCN)c3=O)c(Cl)c2)n1 [compound 25, 8-(4-Aminobutyl)-2-((3-(4-aminophenyl)propyl)amino)-6-(2-chloro-4-(6-methylpyridin-2-yl)phenyl)pyrido[2,3-d]pyrimidin-7(8H)-one] the “ΔTm 25” value (AAK1) was 0.8 °C, the “ΔTm 25” value (DYRK1A) was -0.1 °C and the “ΔTm 25” value (MAP3K5) was 11.8 °C. For the same molecule, the “ΔTm 25” value (CaMK4) was 5.4 °C, the “ΔTm 25” value (AKT3) was 2.0 °C and the “ΔTm 25” value (FES) was 5.9 °C.
For Cc1cccc(-c2ccc(-c3cc4cnc(NC(CO)CO)nc4n(CCCCN)c3=O)c(Cl)c2)n1 [compound 24, 8-(4-Aminobutyl)-6-(2-chloro-4-(6-methylpyridin-2-yl)phenyl)-2-((1,3-dihydroxypropan-2-yl)amino)pyrido[2,3-d]pyrimidin-7(8H)-one], the “ΔTm MR24 (24)” value (AAK1) was -0.4 °C, the “ΔTm MR24 (24)” value (DYRK1A) was 0.1 °C and the “ΔTm MR24 (24)” value (MAP3K5) was 9.0 °C. The “ΔTm MR24 (24)” value (CaMK4) was 1.2 °C, the “ΔTm MR24 (24)” value (AKT3) was 1.0 °C and the “ΔTm MR24 (24)” value (FES) was 4.3 °C.
In the case of CNc1ncc2cc(-c3ccc(-c4cccc(C)n4)cc3Cl)c(=O)n(C[C@H]3CC[C@H](N)CC3)c2n1 [compound 23, 23], the “ΔTm 23” value (AAK1) is reported as 3.3 °C, the “ΔTm 23” value (DYRK1A) is reported as -0.3 °C and the “ΔTm 23” value (MAP3K5) is reported as 12.4 °C. The “ΔTm 23” value (CaMK4) was 6.9 °C, the “ΔTm 23” value (AKT3) was 3.7 °C and the “ΔTm 23” value (FES) was 5.5 °C.
In the case of Cc1cccc(-c2ccc(-c3cc4cnc(NCCCN5CCOCC5)nc4n(CCCCN)c3=O)c(Cl)c2)n1 [compound 26, MR26], the “ΔTm MR26 (26)” value (AAK1) is reported as -0.2 °C, the “ΔTm MR26 (26)” value (DYRK1A) is reported as -0.3 °C and the “ΔTm MR26 (26)” value (MAP3K5) is reported as 9.8 °C. The “ΔTm MR26 (26)” value (CaMK4) was 2.2 °C, the “ΔTm MR26 (26)” value (AKT3) was 0.8 °C and the “ΔTm MR26 (26)” value (FES) was 5.6 °C.
For CNc1ncc2cc(-c3ccc(-c4cccc(C)n4)cc3Cl)c(=O)n(CCC3CCNCC3)c2n1 [compound 22, 6-(2-Chloro-4-(6-methylpyridin-2-yl)phenyl)-2-(methylamino)-8-(2-(piperidin-4-yl)ethyl)pyrido[2,3-d]pyrimidin-7(8H)-one], the “ΔTm 22” value (AAK1) was 2.8 °C, the “ΔTm 22” value (DYRK1A) was 0.5 °C and the “ΔTm 22” value (MAP3K5) was 12.0 °C. For the same molecule, the “ΔTm 22” value (CaMK4) was 4.8 °C, the “ΔTm 22” value (AKT3) was 4.6 °C and the “ΔTm 22” value (FES) was 5.4 °C.
With CNc1ncc2cc(-c3ccc(-c4cccc(C)n4)cc3Cl)c(=O)n(CCCCN)c2n1 [compound 20, MRLW5] the “ΔTm MRLW5 (20)” value (AAK1) was 1.4 °C, the “ΔTm MRLW5 (20)” value (DYRK1A) was -1.0 °C and the “ΔTm MRLW5 (20)” value (MAP3K5) was 12.3 °C. For the same molecule, the “ΔTm MRLW5 (20)” value (CaMK4) was 2.9 °C, the “ΔTm MRLW5 (20)” value (AKT3) was 2.3 °C and the “ΔTm MRLW5 (20)” value (FES) was 5.9 °C.
